Laboratory results published in patent publication US20070161546A1, “Methods and compositions for treatment of cancer” (priority 2005, published 2007).

Legend:
[1] = system: human monocyte-derived macrophages (MDMs); details: p38 MAPK inhibitor added to Z-100; cited from earlier work
[2] = system: Ehrlich ascites tumor cell; details: mice, 14 days after inoculation with cancer cells
Text: The injection is repeated over a period of several days. Fourteen days later after the initial inoculation with cancer cells, each of the treated mice are anesthetized.
The solid tumor growing in the abdominal section is carefully isolated from other organ tissues, cleaned using filter papers and weighed. For the test and the control group, the average weight of the cancerous tissue was tabulated and evaluated by the t-test.

SMILES	effect on Z-100-induced effects (repression of HIV-1 replication) [1]	anticancer effect (average weight of the cancerous tissue), agent alone [2]
C[S+]([O-])c1ccc(-c2nc(-c3ccncc3)c(-c3ccc(F)cc3)[nH]2)cc1 (centres unmarked) [SB 203580]	alleviated	–
O=P1(N(CCCl)CCCl)NCCCO1 (centres unmarked) [cyclophosphamide, Cyclophosphamide]	–	anticancer effects of similar magnitude
